Key:
Type in all cases: cell-based
[1] = molecular target: Melanocyte-stimulating hormone receptor (Homo sapiens, UniProt Q01726); assay: Displacement of [125I]NDP-alpha-MSH from cloned human MC1R expressed in HEK293 cell
[2] = molecular target: Melanocortin receptor 5 (Homo sapiens, UniProt P33032); assay: Displacement of [125I]NDP-alpha-MSH from cloned human MC5R expressed in HEK293 cell
[3] = molecular target: Melanocortin receptor 4 (Homo sapiens, UniProt P32245); assay: Displacement of [125I]NDP-alpha-MSH from cloned human MC4R expressed in HEK293 cells
Chain of Melanocortin receptor 4 (P32245 whole entry): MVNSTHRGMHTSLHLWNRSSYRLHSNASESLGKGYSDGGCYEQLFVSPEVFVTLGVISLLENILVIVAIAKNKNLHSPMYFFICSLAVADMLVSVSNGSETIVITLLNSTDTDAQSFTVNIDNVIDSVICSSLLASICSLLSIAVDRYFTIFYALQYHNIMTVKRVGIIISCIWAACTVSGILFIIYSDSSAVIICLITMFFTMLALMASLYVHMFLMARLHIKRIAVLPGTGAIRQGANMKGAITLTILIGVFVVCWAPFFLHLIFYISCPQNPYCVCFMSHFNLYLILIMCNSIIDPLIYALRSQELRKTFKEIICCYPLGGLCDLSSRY

[4] = molecular target: Melanocortin receptor 3 (Homo sapiens, UniProt P41968); assay: Displacement of [125I]NDP-alpha-MSH from cloned human MC3R expressed in HEK293 cell
Chain of Melanocortin receptor 3 (P41968 whole entry): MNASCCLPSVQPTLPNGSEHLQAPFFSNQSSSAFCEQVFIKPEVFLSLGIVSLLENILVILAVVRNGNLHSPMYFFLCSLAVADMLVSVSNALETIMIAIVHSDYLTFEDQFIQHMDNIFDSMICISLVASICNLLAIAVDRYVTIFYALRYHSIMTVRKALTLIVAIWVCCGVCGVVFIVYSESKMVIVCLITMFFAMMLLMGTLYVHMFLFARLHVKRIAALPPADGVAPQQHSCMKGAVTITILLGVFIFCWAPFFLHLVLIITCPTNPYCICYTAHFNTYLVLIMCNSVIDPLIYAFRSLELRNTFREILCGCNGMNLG

Chain of Melanocortin receptor 5 (P33032 whole entry): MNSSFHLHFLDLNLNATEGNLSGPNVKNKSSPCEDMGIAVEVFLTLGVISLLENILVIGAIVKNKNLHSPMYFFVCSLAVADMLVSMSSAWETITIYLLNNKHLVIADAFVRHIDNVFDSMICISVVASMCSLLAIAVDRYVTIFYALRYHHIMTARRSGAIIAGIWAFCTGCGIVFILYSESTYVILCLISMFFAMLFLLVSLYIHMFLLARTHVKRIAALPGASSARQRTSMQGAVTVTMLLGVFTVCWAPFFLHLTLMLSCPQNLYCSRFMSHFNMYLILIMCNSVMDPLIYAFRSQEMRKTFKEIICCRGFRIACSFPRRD
Chain of Melanocyte-stimulating hormone receptor (Q01726 whole entry): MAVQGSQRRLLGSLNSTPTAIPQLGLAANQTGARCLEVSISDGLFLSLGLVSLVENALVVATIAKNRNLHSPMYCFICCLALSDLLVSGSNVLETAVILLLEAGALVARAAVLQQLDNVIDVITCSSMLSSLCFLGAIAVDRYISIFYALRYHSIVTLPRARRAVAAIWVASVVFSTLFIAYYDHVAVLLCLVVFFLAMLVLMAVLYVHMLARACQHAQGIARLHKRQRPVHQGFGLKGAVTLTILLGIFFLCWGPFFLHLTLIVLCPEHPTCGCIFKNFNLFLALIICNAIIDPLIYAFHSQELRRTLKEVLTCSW

SMILES	Ki [1] [µM]	Ki [2] [µM]	Ki [3] [µM]	Ki [4] [µM]
CCN(CC)CC(c1ccccc1F)N1CCN(C(=O)[C@@H](Cc2ccc(Cl)cc2)NC(=O)c2cc3ccccc3cn2)CC1 (some centres undefined)	7	0.92	0.0956	1.4
CCN(CC)CC(c1ccccc1F)N1CCN(C(=O)[C@@H](Cc2ccc(Cl)cc2)NC(=O)[C@H]2Cc3ccccc3CN2)CC1 (some centres undefined)	5.8	0.95	0.0406	7
CCN(CC)CC(c1ccccc1F)N1CCN(C(=O)[C@@H](Cc2ccc(Cl)cc2)NC(=O)CC2NCCc3ccccc32)CC1 (some centres undefined)	3	0.91	0.0104	4.2
CCN(CC)CC(c1ccccc1F)N1CCN(C(=O)[C@@H](Cc2ccc(Cl)cc2)NC(=O)C2Cc3ccccc3C(C)(C)N2)CC1 (some centres undefined)	7	0.42	0.0058	1.9
CCN(CC)CC(c1ccccc1F)N1CCN(C(=O)[C@@H](Cc2ccc(Cl)cc2)NC(=O)CC2NCc3ccccc32)CC1 (some centres undefined)	6	1.2	0.0073	3.4
CCN(CC)CC(c1ccccc1F)N1CCN(C(=O)[C@@H](Cc2ccc(Cl)cc2)NC(=O)CC2c3ccccc3CN2C)CC1 (some centres undefined)	8.6	2	0.0173	4.6
CCN(CC)CC(c1ccccc1F)N1CCN(C(=O)[C@@H](Cc2ccc(Cl)cc2)NC(=O)CC2(C)NCc3ccccc32)CC1 (some centres undefined)	20	1.4	0.0737	16
CCN(CC)CC(c1ccccc1Cl)N1CCN(C(=O)[C@@H](Cc2ccc(Cl)cc2)NC(=O)CC2NCc3ccccc32)CC1 (stereo in doubt; 40a)	–	–	0.178	–
CCN(CC)CC(c1ccccc1Cl)N1CCN(C(=O)[C@@H](Cc2ccc(Cl)cc2)NC(=O)CC2NCc3ccccc32)CC1 (stereo in doubt; 40b)	–	–	0.0181	–
CCN(CC)CC(c1ccccc1Cl)N1CCN(C(=O)[C@@H](Cc2ccc(Cl)cc2)NC(=O)CC2NCc3ccccc32)CC1 (stereo in doubt; 41a)	–	–	0.107	–
CCN(CC)CC(c1ccccc1Cl)N1CCN(C(=O)[C@@H](Cc2ccc(Cl)cc2)NC(=O)CC2NCc3ccccc32)CC1 (stereo in doubt; 41b)	–	–	0.0053	–
CCN(CC)CC(c1ccccc1Cl)N1CCN(C(=O)[C@@H](Cc2ccc(Cl)cc2)NC(=O)CC2NCCc3ccccc32)CC1 (stereo in doubt; 42)	–	–	0.0302	–
CCN(CC)CC(c1ccccc1Cl)N1CCN(C(=O)[C@@H](Cc2ccc(Cl)cc2)NC(=O)CC2NCCc3ccccc32)CC1 (stereo in doubt; 43)	–	–	0.0064	–

— ChEMBL document CHEMBL1146993, “Synthesis and structure-activity relationships of novel dipeptides and reduced dipeptides as ligands for melanocortin subtype-4 receptor” (Bioorg Med Chem Lett, 2006)
